The supplement of paper PMC4862054

How the values were obtained:
Details in all cases: incubation time: 72 h
HCC1143 [1] = test: normalised response (% of control), CellTiter-Glo; higher = more viable cells (100 = DMSO, 0 = benzethonium chloride kill control)
Procedure, shortened: (§1)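 In 384-well plates holding compound at 5 concentrations in 10-fold steps over a 10,000-fold range specific to each compound, breast cancer cell lines were seeded as 20 µl suspension and incubated 72 h. CellTox Green fluorescence was measured at 485/520 nm, after which CellTiter-Glo luminescence was measured following 10 min at room temperature. Plate signals were normalised to 0.1 % DMSO (100) and a positive kill control (0), and each value is the normalised signal at a single concentration.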

DU-4475 [2] = test: as above
Procedure, shortened: as §1

SK-BR-3 = test: as above
Procedure, shortened: as §1

HCC1937 [3] = test: as above
Procedure, shortened: as §1

CAL-51 [4] = test: as above
Procedure, shortened: as §1

BT-474 [5] = test: as above
Procedure, shortened: as §1

MDA-MB-231 [6] = test: as above
Procedure, shortened: as §1

CAL-120 [7] = test: as above
Procedure, shortened: as §1

CAL-85-1 [8] = test: as above
Procedure, shortened: as §1

HCC1599 [9] = test: as above
Procedure, shortened: as §1

CAL-148 [10] = test: as above
Procedure, shortened: as §1

MDA-MB-453 [11] = test: as above
Procedure, shortened: as §1

MFM-223 [12] = test: as above
Procedure, shortened: as §1

MCF-10A [13] = test: as above
Procedure, shortened: as §1

HDQ-P1 [14] = test: as above
Procedure, shortened: as §1

MDA-MB-468 [15] = test: as above
Procedure, shortened: as §1

BT-549 [16] = test: as above
Procedure, shortened: as §1

Hs578T [17] = test: as above
Procedure, shortened: as §1

MDA-MB-436 [18] = test: as above
Procedure, shortened: as §1

HCC1143 [19] = test: normalised response (% of control), CellTox Green; higher = less cell death (100 = DMSO, 0 = benzethonium chloride kill control)
Procedure, shortened: as §1

DU-4475 [20] = test: as above
Procedure, shortened: as §1

HCC1937 [21] = test: as above
Procedure, shortened: as §1

CAL-51 [22] = test: as above
Procedure, shortened: as §1

BT-474 [23] = test: as above
Procedure, shortened: as §1

MDA-MB-231 [24] = test: as above
Procedure, shortened: as §1

CAL-120 [25] = test: as above
Procedure, shortened: as §1

CAL-85-1 [26] = test: as above
Procedure, shortened: as §1

HCC1599 [27] = test: as above
Procedure, shortened: as §1

CAL-148 [28] = test: as above
Procedure, shortened: as §1

MDA-MB-453 [29] = test: as above
Procedure, shortened: as §1

MFM-223 [30] = test: as above
Procedure, shortened: as §1

MCF-10A [31] = test: as above
Procedure, shortened: as §1

HDQ-P1 [32] = test: as above
Procedure, shortened: as §1

MDA-MB-468 [33] = test: as above
Procedure, shortened: as §1

BT-549 [34] = test: as above
Procedure, shortened: as §1

MDA-MB-436 [35] = test: as above
Procedure, shortened: as §1

Hs578T [36] = test: as above
Procedure, shortened: as §1

| Structure (SMILES) | normalised response (HCC1143 [1]) [%] | normalised response (DU-4475 [2]) [%] | normalised response (SK-BR-3) [%] | normalised response (HCC1937 [3]) [%] | normalised response (CAL-51 [4]) [%] | normalised response (BT-474 [5]) [%] | normalised response (MDA-MB-231 [6]) [%] | normalised response (CAL-120 [7]) [%] | normalised response (CAL-85-1 [8]) [%] | normalised response (HCC1599 [9]) [%] | normalised response (CAL-148 [10]) [%] | normalised response (MDA-MB-453 [11]) [%] | normalised response (MFM-223 [12]) [%] | normalised response (MCF-10A [13]) [%] | normalised response (HDQ-P1 [14]) [%] | normalised response (MDA-MB-468 [15]) [%] | normalised response (BT-549 [16]) [%] | normalised response (Hs578T [17]) [%] | normalised response (MDA-MB-436 [18]) [%] | normalised response (HCC1143 [19]) [%] | normalised response (DU-4475 [20]) [%] | normalised response (HCC1937 [21]) [%] | normalised response (CAL-51 [22]) [%] | normalised response (BT-474 [23]) [%] | normalised response (MDA-MB-231 [24]) [%] | normalised response (CAL-120 [25]) [%] | normalised response (CAL-85-1 [26]) [%] | normalised response (HCC1599 [27]) [%] | normalised response (CAL-148 [28]) [%] | normalised response (MDA-MB-453 [29]) [%] | normalised response (MFM-223 [30]) [%] | normalised response (MCF-10A [31]) [%] | normalised response (HDQ-P1 [32]) [%] | normalised response (MDA-MB-468 [33]) [%] | normalised response (BT-549 [34]) [%] | normalised response (MDA-MB-436 [35]) [%] | normalised response (Hs578T [36]) [%] |
| --- | --- | --- | --- | --- | --- | --- | --- | --- | --- | --- | --- | --- | --- | --- | --- | --- | --- | --- | --- | --- | --- | --- | --- | --- | --- | --- | --- | --- | --- | --- | --- | --- | --- | --- | --- | --- | --- |
| C[C@@H](Oc1cc(-c2cnn(C3CCNCC3)c2)cnc1N)c1c(Cl)ccc(F)c1Cl [Crizotinib] (100 nM) | 100 | 99.2 | 92.4 | 98.5 | 104 | 102 | 98.6 | 100 | 116 | 114 | 95.6 | 91.7 | 97.1 | 107 | 98.8 | 96.1 | 90.4 | 99.7 | 102 | 114 | 105 | 79.2 | 111 | 104 | 123 | 104 | 93.4 | 104 | 106 | 90.9 | 99.2 | 105 | 95.8 | 122 | 140 | 80.2 | – |
| CS(=O)(=O)c1ccc(C2=C(c3ccccc3)C(=O)OC2)cc1 [Rofecoxib] (1000 nM) | 103 | 98.8 | 116 | 97 | 104 | 101 | 107 | 103 | 103 | 118 | 102 | 97 | 104 | 122 | 100 | 103 | 95.4 | 112 | 105 | 116 | 112 | 96 | 99.8 | 102 | 112 | 101 | 112 | 100 | 105 | 108 | 103 | 118 | 82 | 127 | 98.2 | 99.2 | 108 |
| O=C(CCCCCCC(=O)Nc1ccc([C@H]2O[C@@H](CSc3nc(-c4ccccc4)c(-c4ccccc4)o3)C[C@@H](c3ccc(CO)cc3)O2)cc1)NO [Tubacin] (1000 nM) | 90.2 | 91.9 | 95.3 | 82.6 | 77.8 | 91.3 | 81.4 | 88.6 | 72.2 | 93.2 | 95.4 | 70.3 | 78.3 | 105 | 88.2 | 61.7 | 89.3 | 95.3 | 94.8 | 105 | 101 | 55.1 | 93.4 | 95.5 | 88.2 | 100 | 102 | 97.9 | 99.9 | 103 | 86.1 | 113 | 72.7 | -536 | 114 | 90.3 | 93.4 |
| N#CCNC(=O)c1ccc(-c2ccnc(Nc3ccc(N4CCOCC4)cc3)n2)cc1 [Momelotinib] (1000 nM) | 91.7 | 90.5 | 86.6 | 108 | 122 | 77.1 | 77.2 | 75.8 | 92.7 | 110 | 85 | 113 | 93.4 | 77 | 107 | 82.5 | 89.6 | 93 | 96.9 | 113 | 97.7 | – | 117 | 101 | 100 | 102 | 89.6 | 95.9 | 98.7 | 108 | 99.5 | 108 | 111 | 178 | 96.5 | 103 | 99.4 |
| NC(=O)Nc1cc(-c2cccc(F)c2)sc1C(=O)N[C@H]1CCCNC1 [AZD7762] (100 nM) | 96.8 | 98.4 | 99.6 | 97.2 | 111 | 93.7 | 88.7 | 95.9 | 59.5 | 78.5 | 97.9 | 83.2 | 104 | 91.6 | 95.2 | 99.3 | 73.4 | 93 | 92.4 | 82.6 | 100 | 125 | 104 | 102 | 105 | 99.8 | 36.1 | 103 | 102 | 101 | 101 | – | 103 | 50.3 | 105 | 83.7 | 64.1 |
| Cc1ccc(C(=O)N(CCCN)[C@@H](c2oc3cc(Cl)ccc3c(=O)c2Cc2ccccc2)C(C)C)cc1 (10 nM) | 97.1 | 96.5 | 92.5 | 101 | 120 | 97.9 | 98.8 | 102 | 101 | 100 | 91.3 | 94.8 | 90.2 | 103 | 103 | 90.7 | 100 | 97.5 | 107 | 112 | 104 | – | 108 | 89.8 | 94.4 | 95.5 | 108 | 91.8 | 90.8 | 102 | 101 | 112 | 85.7 | 111 | 88 | 100 | 103 |
| COc1cc2ncnc(Nc3ccc(F)c(Cl)c3)c2cc1NC(=O)/C=C/CN1CCCCC1 [Dacomitinib] (100 nM) | 94.9 | 96.2 | 36.1 | 93.3 | 112 | 94 | 97.5 | 99.7 | 61 | 110 | 82 | 72.7 | 105 | 38.9 | 68.6 | 87.1 | 95.4 | 101 | 92.1 | 102 | 99.5 | 92.7 | 78.7 | 70.4 | 109 | 96.7 | 80.4 | 99.1 | 97.8 | 87.4 | 100 | 94.3 | 89.4 | 74.8 | 98.9 | 96.8 | 101 |
| N.N.[Cl][Pt][Cl] [Cisplatin] (100 nM) | 104 | 90.2 | 99.2 | 102 | 116 | 102 | 98.7 | 101 | 96.2 | 98.7 | 90.7 | 94.9 | 96.6 | 1.72 | 107 | 98.5 | 90.4 | 102 | 101 | 109 | 107 | – | 103 | 99.2 | 74 | 109 | 121 | 97.4 | 105 | 110 | 82.7 | -220 | 118 | 94.6 | 80.2 | 107 | 85.4 |
| CC(C)Cn1cnc2c(N)nc3ccccc3c21 [Imiquimod] (250 nM) | 101 | 103 | 105 | 93 | 99 | 110 | 105 | 95 | 97.5 | 104 | 98 | 107 | 101 | 104 | 97.7 | 97 | 105 | 98.7 | 101 | 99.4 | 101 | 112 | 94.4 | 88.2 | 102 | 99.5 | 89.3 | 97.7 | 76.8 | 103 | 92.9 | 109 | 104 | 119 | 98.3 | 107 | 54.6 |
